Here are results for three compounds from US20240132467A1, “BENZIMIDAZOLE DERIVATIVES FOR TREATING RESPIRATORY DISEASE” (TMEM16A Limited, priority 2020, published 2024).

This test concerns the target T1, human TMEM16A (TMEM16Aabc variant) (Homo sapiens, UniProt Q5XXA6, DEL476-501).
T1 sequence (Q5XXA6 with tags, fused parts or gaps isoform Q5XXA6-5 DEL539-564): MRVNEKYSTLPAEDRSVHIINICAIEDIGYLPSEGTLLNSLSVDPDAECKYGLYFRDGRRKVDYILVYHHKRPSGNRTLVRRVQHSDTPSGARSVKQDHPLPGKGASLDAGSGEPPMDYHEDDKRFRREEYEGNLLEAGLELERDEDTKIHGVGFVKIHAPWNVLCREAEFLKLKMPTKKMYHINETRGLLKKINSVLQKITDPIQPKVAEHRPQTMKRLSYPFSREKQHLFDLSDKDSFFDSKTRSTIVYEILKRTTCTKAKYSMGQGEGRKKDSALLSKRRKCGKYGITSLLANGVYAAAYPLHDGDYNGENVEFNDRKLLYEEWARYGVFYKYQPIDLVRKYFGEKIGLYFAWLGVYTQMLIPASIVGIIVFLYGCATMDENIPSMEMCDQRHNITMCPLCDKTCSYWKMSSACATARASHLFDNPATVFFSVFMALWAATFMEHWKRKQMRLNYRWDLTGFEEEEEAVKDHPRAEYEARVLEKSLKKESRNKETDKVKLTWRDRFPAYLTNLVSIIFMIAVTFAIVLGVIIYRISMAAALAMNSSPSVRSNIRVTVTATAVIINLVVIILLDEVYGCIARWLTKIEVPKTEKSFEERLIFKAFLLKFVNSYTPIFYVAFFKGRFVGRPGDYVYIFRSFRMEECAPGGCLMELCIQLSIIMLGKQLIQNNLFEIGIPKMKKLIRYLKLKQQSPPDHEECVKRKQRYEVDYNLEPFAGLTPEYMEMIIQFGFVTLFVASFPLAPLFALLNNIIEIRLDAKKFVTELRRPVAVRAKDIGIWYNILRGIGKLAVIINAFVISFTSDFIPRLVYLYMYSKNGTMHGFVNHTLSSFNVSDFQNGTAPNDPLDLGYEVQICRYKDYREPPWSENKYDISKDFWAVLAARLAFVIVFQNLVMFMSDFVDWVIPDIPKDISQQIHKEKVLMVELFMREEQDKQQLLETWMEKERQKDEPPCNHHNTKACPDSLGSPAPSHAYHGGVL
As to the kind of experiment: Automated whole-cell patch clamp (Qpatch) TMEM16A potentiator assay in FRT cells stably expressing human TMEM16A. Type of test: cell-based. The note with it: for activation at 3.33 µM: 3.33 μM test compound, percentage increase of baseline TMEM16A current at +70 mV, intracellular calcium at EC20, read-out: % Potentiation @ 3.33 μM Avg; for EC50: cumulative concentration response, 5 min per concentration, whole-cell patch clamp. As to the method: Automated whole-cell patch clamp assay to detect TMEM16A activity in recombinant cells Cell culture and preparation
Fisher rat thyroid (FRT) cells stably expressing human TMEM16A (TMEM16Aabc variant; Dr Luis Galietta, Insituto Giannina, Italy) were cultured in T-75 flasks in Hams F-12 media with Coon's modification (Sigma) supplemented with 10% (v/v) foetal bovine serum, penicillin-streptomycin (10,000 U/mL/10000 μg/mL), G-418 (750μg/mL), L-glutamine (2 mM) and sodium bicarbonate solution (7.5% v/v). At —90% confluence cells were harvested for experiments by detachment with a 2:1 (v/v) mixture of Detachin (BMS Biotechnology) and 0.25% (w/v) trypsin-EDTA. Cells were diluted to a density of 3.5-4.5×10^6 cells/mL with media consisting of CHO-S-SFM II (Sigma), 25 mM HEPES (Sigma) and Soy bean trypsin inhibitor (Sigma).
Whole-Cell Patch Clamp Recording
FRT-TMEM16A cells were whole-cell patch clamped using an automated planar patch clamp system (Qpatch, Sophion). Briefly, once high resistance (GOhm) seals were established between the cells and the planar recording array the patch was ruptured using suction pulses to establish the whole-cell recording configuration of the patch clamp technique. The assay employed the following solutions (all reagents Sigma):
Intracellular solution (mM): N-methyl-D-glucamine 130, CaCl2 18.2, MgCl2 1, HEPES 10, EGTA 10, BAPTA 20, Mg-ATP 2, pH 7.25, 325mOsm with sucrose.
Extracellular solution (mM): N-methyl-D-glucamine 130, CaCl2 2, MgCl2 1, HEPES 10, pH 7.3, 320 mOsm with sucrose.
The intracellular solution buffers intracellular calcium at levels required to give —20% activation of the maximal TMEM16A mediated current (EC20 for calcium ions). Cells were voltage clamped at a holding potential of -70mV and a combined voltage step (to +70 mV)/ramp (−90 my to +90 mV) was applied at 0.05 Hz. After a period of current stabilisation test compounds, solubilised in 100% (v/v) DMSO and subsequently diluted into extracellular solution, were applied to generate a cumulative concentration response curve. Each concentration of test compound was incubated for 5 minutes before addition of the next concentration. After the final concentration was tested a supramaximal concentration of either a known active positive modulator or the TMEM16A inhibitor, CaCCinhA01 (Del La Fuente et al, 2008) was added to define the upper and lower limits of the assay.
Compound activity was quantified by measuring the increase in current upon compound addition and expressing this as a percentage increase of baseline TMEM16A current level. Percentage increases in current were determined for each concentration and the data plotted as a function of concentration using either the Qpatch software or Graphpad Prism v6.05 providing the concentration which gave 50% of its maximal effect (EC50) and maximum efficacy (percentage of baseline increase).
In FIG. 1, IBL equals baseline current, km equals the peak current during test compound concentration 1 incubation period and so on.
Peak TMEM16A current at +70mV was plotted as a function of time over the assay period. Baseline current (IBL) was measured after a period of stabilisation. The increase in current for each compound addition was determined by taking the peak current during the incubation period and subtracting the current from the previous recording period and then expressing this as a percentage of the baseline current. For test compound concentration 1 in FIG. 1 this is:
For each additional concentration tested the increase in current was determined by subtracting the current from the previous incubation period and normalising the baseline value—for test concentration 2 in FIG. 1 this is:
The values for each test concentration were plotted as a cumulative function of concentration e.g. for test concentration two this would be the sum of the peak changes measured during concentration one plus concentration two.
On the technique in general: The patch-clamp technique gives a direct electrical read-out from membranes.

As usually defined, the EC50 is the concentration giving half of the maximal effect.

Consider `CC(C)(C)OC(=O)NCCc1nc2cc(NC(=O)CC3C4CC5CC(C4)CC3C5)ccc2[nH]1` (stereo not drawn) [Example 3.4], for which the activation at 3.33 µM came to 99.8% and the concentration giving a half-maximal response (EC50) stood at 471 nM.
On the same counts, the results for `CC(C)(C)CNC(=O)c1ccc2[nH]c(Cc3ccccc3)nc2c1` [Example 3.5, 2-Benzyl-N-(2,2-dimethylpropyl)-1H-benzimidazole-5-carboxamide] are 144% and 1020 nM.
On the same counts, the results for `CC(C)(C)C(C)(C)NC(=O)c1ccc2[nH]c(Cc3ccccc3)nc2c1` [Example 3.5.1, 2-Benzyl-N-(1,1,2,2-tetramethylpropyl)-1H-benzimidazole-5-carboxamide] are 89.5% and 779 nM.
